Assay results published in patent US9868715B2 (THE BOARD OF REGENTS OF THE UNIVERSITY OF TEXAS SYSTEMS, priority 2014, dated 2018).
Entries after “also recorded” stand apart in the source; their conditions may differ.

Columns and labels:
[1] = tested on: C57BL/6 mice with cerulein-induced CP; assay: Chronic pancreatitis (CP) animal model, fibronectin IHC; assay type: in vivo; details: 0.5 mg/kg daily oral gavage, 3 weeks
Procedure: In order to evaluate the anti-fibrotic effect of these new compounds as a proof-of-concept, the compounds were tested in a preclinical animal model of CP. CP was induced in mice using the well-established model of repeated cerulean (CR) injections (Lerch and Gorelick 2013, Gastroenterology 144:1180; Aghdassi et al. 2011, Fibrogenesis Tissue Repair 4:26). […] After four weeks, the pancreata were processed and stained for fibronectin, which is a major component of the ECM. […] ImageJ analysis of the slides quantified the significant decrease in fibrosis (p<0.001) (FIG. 4E).
Chronic pancreatitis (CP) animal model. Animal experiments were conducted under an Institutional Animal Care and Use Committee-approved protocol. CP was induced in C57BL/6 mice using supraoptimal pancreatic stimulation with cerulein (CR), a cholecystokinin analogue (Bachem, Torrance, Calif.). CP (50 μg CR/kg mouse weight) was administered via intraperitoneal route hourly for 5 h for 3 d/week for a total of 4 weeks. Control mice received phosphate buffered saline (PBS) injections following the same schedule. […] At the end of Week 4, the mice were anesthestized with isoflurane and sacrificed per protocol. The pancreata were quickly harvested and processed.
Immunohistochemistry (IHC) and image analysis. Pancreata were formalin-fixed and paraffin-embedded. Prior to staining, sections (5 μm) were deparaffinized with xylene, dehydrated with ethanol, and subjected to heat-mediated antigen retrieval (DAKO, Carpinteria, Calif.) to optimize antigen immunoreactivity. Fibronectin antibody (1:600; Santa Cruz Biotechnology, Dallas, Tex.), and biotinylated anti-goat IgG (1:400; Vector Laboratories Inc., Burlingame, Calif.) were used. […] The percent area of brown fibronectin staining was quantified using the Image Processing and Analysis in Java (ImageJ) 1.46r software (NIH, Bethesda, Md.) and a color deconvolution plug-in (Ruifrok and Johnston, Anal Quant Cytol Histol 2001, 23:291; Schneider et al., Nat Methods 2012, 9:671).

[2] = biological target: T1, human CBS (cystathionine-β-synthase) (Homo sapiens, UniProt P35520); assay: H2S production by recombinant CBS; assay type: biochemical; details: 100 μM compound; H2S production as % of control (100%)
T1 construct: GST (N); made in house; host or cells: E. coli BL21(DE3) Codon Plus
T1 sequence (P35520 1-551): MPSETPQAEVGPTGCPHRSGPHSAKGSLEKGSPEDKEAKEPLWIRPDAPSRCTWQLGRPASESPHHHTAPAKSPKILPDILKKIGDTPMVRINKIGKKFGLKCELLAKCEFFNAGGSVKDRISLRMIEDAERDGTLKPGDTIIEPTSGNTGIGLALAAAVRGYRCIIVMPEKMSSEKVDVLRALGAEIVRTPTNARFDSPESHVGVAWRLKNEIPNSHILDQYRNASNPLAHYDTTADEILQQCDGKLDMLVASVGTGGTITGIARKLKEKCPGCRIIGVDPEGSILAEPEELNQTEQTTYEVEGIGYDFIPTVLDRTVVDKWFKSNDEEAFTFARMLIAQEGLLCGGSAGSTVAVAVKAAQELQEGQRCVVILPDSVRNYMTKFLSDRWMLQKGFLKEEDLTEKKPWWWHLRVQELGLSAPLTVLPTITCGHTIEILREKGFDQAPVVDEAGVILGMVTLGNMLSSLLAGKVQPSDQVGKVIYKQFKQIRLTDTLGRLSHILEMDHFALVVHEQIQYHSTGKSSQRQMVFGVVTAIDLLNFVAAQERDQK
Procedure: Recombinant human CBS protein expression and purification. The expression and purification of human CBS was performed as described previously (Asimakopoulou et al. 2013, Br J Pharmacol. 169(4):922-32). Briefly, E. Coli BL21(DE3) Codon Plus cells (Stratagene, La Jolla, Calif., USA) containing the expression vector pGEX-Kg/GST-CBS were grown at 37° C. and 180 rpm in LuriaBertani (LB) broth medium containing 100 μg/ml ampicillin to an absorption of 0.6-0.8 at 600 nm. Protein expression was induced by addition of 0.1 mM IPTG (isopropyl-b-D-thiogalactopyranoside) and cells were further incubated at 30° C. overnight. The bacteria were harvested and sonicated in lysis buffer PBS (140 mM NaCl, 2.7 mM KCl, 10 mM Na2HPO4, 1.8 mM KH2PO4, pH 7.8) containing a protease inhibitors cocktail (Sigma). The protein lysate was loaded onto a GSTrap FF 1 ml affinity column (Amersham Biosciences) and the GST-CBS recombinant protein was eluted with the elution buffer (50 mM Tris-HCl, 10 mM reduced glutathione, pH 8.0) and then dialyzed and concentrated in 10 mM sodium phosphate buffer (pH 8.2) and DTT (1 mM).
Measurement of H2S production by recombinant CBS. The measurement of H2S production by recombinant CBS enzyme was performed as described (Asimakopoulou et al. 2013, Br J Pharmacol. 169(4):922-32). Briefly, each test consisted of a 100 μl reaction mixture in 50 mM sodium phosphate buffer pH 8.2 containing 1 μg of the purified human CBS enzyme, 0.01 mM pyridoxal-5′-phosphate (PLP), 10 mM L-cysteine and 0.5 mM homocysteine. […] The reaction was initiated by transferring the Eppendorf tubes from ice to a 37° C. shaking water bath. After 60 minutes of incubation at 37° C., the reaction was terminated by adding 1% ZnAc followed by 10% trichloroacetic acid. Subsequently, N,N-dimethylphenylendiamine sulfate (20 mM in 7.2 M HCl) and FeCl3 (30 mM in 1.2 M HCl) were added and the optical absorbance of the solutions was measured at 650 nm.

[3] = Aqueous solubility by HPLC analysis method; assay type: physicochemical; details: in the form of HCl salt

| activity at 100 µM [2] | Aqueous solubility compared with apigenin, result in words [3] | Aqueous solubility, saturated concentration [3] | Structure (SMILES) | Pancreatic fibrosis in CP model (fibronectin stain), result in words [1] |
| --- | --- | --- | --- | --- |
| 79% | significantly improved solubility | 84.1 mg/mL | COc1cc(OC)c2c(=O)cc(-c3ccc(OCC(O)CN4CCCCC4)cc3)oc2c1 (centres unmarked) [Compound 24, 2-(4-(2-Hydroxy-3-piperidin-1-yl-propoxy)phenyl)-5,7-dimethoxy-chromen-4-one] | as efficacious as apigenin in reducing pancreatic fibrosis; also recorded: significantly decreased the stromal fibrosis of CP; also recorded: significantly reduced the fibrotic response; also recorded: significant efficacy to reduce pancreatic fibrosis |
| 119% |  |  | COc1cc(OC)c2c(=O)cc(-c3ccc(OCC4CO4)cc3)oc2c1 (centres unmarked) [Compound 23, 5,7-Dimethoxy-2-(4-oxiranylmethoxyphenyl)-chromen-4-one] | as efficacious as apigenin in reducing pancreatic fibrosis; also recorded: significantly decreased the stromal fibrosis of CP; also recorded: significantly reduced the fibrotic response; also recorded: significant efficacy to reduce pancreatic fibrosis |

| Structure (SMILES) | activity at 100 µM [2] | Aqueous solubility compared with apigenin, result in words [3] | Aqueous solubility, saturated concentration [3] | Pancreatic fibrosis in CP model (fibronectin stain), result in words [1] |
| --- | --- | --- | --- | --- |
| O=c1cc(-c2ccc(O)cc2)oc2cc(O)cc(O)c12 [Apigenin, 4′,5,7-trihydroxyflavone, reference compound] | 80.8% |  |  | significantly decreased the stromal fibrosis of CP; also recorded: significantly reduced the fibrotic response; also recorded: significant efficacy to reduce pancreatic fibrosis |
